Reference: the supplement of paper PMC10307832

Compound: N[C@@H]1CCCN(c2c(/C=C3\SC(=O)NC3=O)cccc2-c2ccccc2)C1 [AZD1208] + CCNC(=O)c1noc(-c2cc(C(C)C)c(O)cc2O)c1-c1ccc(CN2CCOCC2)cc1 [Luminespib] (partner 0.01 µM)
Assay: relative viability (nuclei count vs DMSO), 5 days (fraction); higher = more cells survive
Settings: first compound 8 µM
Method in brief: (§1)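 Relative viability divides the nuclei count in treated wells by that in vehicle wells. Lung cancer cell lines were seeded in 1536-well plates, dosed by pin tool the next day, and fixed and stained after 5 days in one step with final 0.05% Triton X-100, 1% formaldehyde and 1 ug/ml Hoechst. Dosing was a single drug or a fixed anchor-drug dose plus five library-drug doses (not always all listed) in √10 steps, and values are medians of duplicate plates imaged at 4×.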

| Cell Line | relative viability |
| --- | --- |
| NCI-H647 | 0.146 |
| LK-2 | 0.17 |
| NCI-H2126 | 0.858 |
| NCI-H2342 | 0.533 |
| SK-MES-1 | 0.531 |
| H3255 | 0.842 |
| COR-L23 | 0.508 |
| COR-L 105 | 0.855 |
| LOU-NH91 | 0.322 |
| ChaGo-K-1 | 0.392 |
| NCI-H2170 | 0.321 |
| NCI-H3122 | 0.0841 |
| HOP-62 | 0.956 |
| HCC-44 | 1.04 |
| SW 900 | 0.162 |
| LU99A | 0.238 |
| BEN | 0.303 |
| HARA | 0.777 |
| NCI-H1563 | 0.504 |
| ABC-1 | 0.632 |

Compound: CN1CCN(CC1)C2=CC(=C(C=C2)NC3=NC(=C(S3)C(=O)C4=C(C=CC=C4Cl)Cl)N)OC [XMD14-99] + Cc1nc(NC(=O)N2CCC[C@H]2C(N)=O)sc1-c1ccnc(C(C)(C)C(F)(F)F)c1 [Alpelisib] (partner 2 µM)
Assay: as above
Settings: first compound 0.08 µM
Method in brief: as §1

| Cell Line | relative viability |
| --- | --- |
| NCI-H838 | 1 |
| EBC-1 | 0.819 |
| NCI-H1703 | 0.338 |
| NCI-H2009 | 1.14 |
| NCI-H1993 | 0.63 |
| PC-14 | 0.813 |
| LCLC-103H | 0.867 |
| NCI-H596 | 0.503 |
| NCI-H2228 | 0.927 |
| EMC-BAC-2 | 0.728 |
| NCI-H2087 | 1.03 |
| Calu-6 | 0.929 |
| HCC-366 | 0.475 |
| NCI-H1666 | 0.866 |
| NCI-H647 | 1.05 |
| LK-2 | 1.01 |
| NCI-H2126 | 0.745 |
| SK-MES-1 | 0.924 |

| Cell Line | relative viability |
| --- | --- |
| H3255 | 0.605 |
| COR-L23 | 0.768 |
| COR-L 105 | 0.851 |
| IA-LM | 0.72 |
| LOU-NH91 | 0.72 |
| NCI-H2170 | 0.771 |
| NCI-H3122 | 0.76 |
| HOP-62 | 0.883 |
| HCC-44 | 0.825 |
| A549 | 0.749 |
| LU99A | 0.511 |
| BEN | 0.94 |
| HARA | 0.872 |
| HCC-78 | 0.371 |
| NCI-H1299 | 1.05 |
| NCI-H1563 | 0.85 |
| ABC-1 | 1.03 |

Same assay, conditions: first compound 0.8 µM

| Cell Line | relative viability |
| --- | --- |
| NCI-H838 | 0.928 |
| EBC-1 | 0.783 |
| NCI-H1703 | 0.36 |
| NCI-H2009 | 1.13 |
| NCI-H1993 | 0.731 |
| PC-14 | 0.921 |
| LCLC-103H | 1.04 |
| NCI-H596 | 0.587 |
| NCI-H2228 | 0.528 |
| EMC-BAC-2 | 0.767 |
| NCI-H2087 | 0.801 |
| Calu-6 | 0.959 |
| HCC-366 | 0.413 |
| NCI-H1666 | 0.94 |
| NCI-H647 | 1.07 |
| LK-2 | 1.11 |
| NCI-H2126 | 0.75 |
| SK-MES-1 | 0.909 |

| Cell Line | relative viability |
| --- | --- |
| H3255 | 0.636 |
| COR-L23 | 0.749 |
| COR-L 105 | 0.849 |
| IA-LM | 0.638 |
| LOU-NH91 | 0.804 |
| NCI-H2170 | 0.762 |
| NCI-H3122 | 0.741 |
| HOP-62 | 1 |
| HCC-44 | 0.788 |
| A549 | 0.759 |
| LU99A | 0.547 |
| BEN | 0.936 |
| HARA | 0.784 |
| HCC-78 | 0.308 |
| NCI-H1299 | 1.04 |
| NCI-H1563 | 0.894 |
| ABC-1 | 0.985 |

Same assay, conditions: first compound 2.53 µM

| Cell Line | relative viability |
| --- | --- |
| NCI-H838 | 0.904 |
| EBC-1 | 0.653 |
| NCI-H1703 | 0.487 |
| NCI-H2009 | 1.13 |
| NCI-H1993 | 0.601 |
| PC-14 | 0.901 |
| LCLC-103H | 0.959 |
| NCI-H596 | 0.477 |
| NCI-H2228 | 0.492 |
| EMC-BAC-2 | 0.74 |
| NCI-H2087 | 0.827 |
| Calu-6 | 0.919 |
| HCC-366 | 0.366 |
| NCI-H1666 | 0.805 |
| NCI-H647 | 0.937 |
| LK-2 | 0.855 |
| NCI-H2126 | 0.723 |
| SK-MES-1 | 0.851 |

| Cell Line | relative viability |
| --- | --- |
| H3255 | 0.629 |
| COR-L23 | 0.515 |
| COR-L 105 | 0.823 |
| IA-LM | 0.515 |
| LOU-NH91 | 0.735 |
| NCI-H2170 | 0.854 |
| NCI-H3122 | 0.542 |
| HOP-62 | 1.04 |
| HCC-44 | 0.821 |
| A549 | 0.641 |
| LU99A | 0.46 |
| BEN | 0.854 |
| HARA | 0.734 |
| HCC-78 | 0.331 |
| NCI-H1299 | 1.05 |
| NCI-H1563 | 0.957 |
| ABC-1 | 0.927 |

Same assay, conditions: first compound 8 µM

| Cell Line | relative viability |
| --- | --- |
| NCI-H838 | 0.604 |
| EBC-1 | 0.561 |
| NCI-H1703 | 0.334 |
| NCI-H2009 | 0.968 |
| NCI-H1993 | 0.59 |
| PC-14 | 0.73 |
| LCLC-103H | 0.863 |
| NCI-H596 | 0.568 |
| NCI-H2228 | 0.188 |
| EMC-BAC-2 | 0.619 |
| NCI-H2087 | 0.549 |
| Calu-6 | 0.67 |
| HCC-366 | 0.232 |
| NCI-H1666 | 0.699 |
| NCI-H647 | 0.933 |
| LK-2 | 1.05 |
| NCI-H2126 | 0.647 |
| SK-MES-1 | 0.591 |

| Cell Line | relative viability |
| --- | --- |
| H3255 | 0.506 |
| COR-L23 | 0.301 |
| COR-L 105 | 0.806 |
| IA-LM | 0.456 |
| LOU-NH91 | 0.622 |
| NCI-H2170 | 0.734 |
| NCI-H3122 | 0.319 |
| HOP-62 | 0.818 |
| HCC-44 | 0.797 |
| A549 | 0.576 |
| LU99A | 0.415 |
| BEN | 0.801 |
| HARA | 0.481 |
| HCC-78 | 0.291 |
| NCI-H1299 | 0.884 |
| NCI-H1563 | 0.869 |
| ABC-1 | 0.747 |
